Assays:
BRAF = target: T1, BRAF (Homo sapiens, UniProt P15056); experiment: In vitro kinase assay (Z′-LYTE); format: biochemical; settings: compound 100 nM; ATP 100 μM; read-out: % of inhibition of the kinase compared to the control
T1 construct: purchased Invitrogen
Method in brief: (§1)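 Z′-LYTE FRET assay: kinase phosphorylation of a dual-fluorophore peptide protects it from protease cleavage, and the donor/acceptor emission ratio after 400 nm excitation tracks progress. Compounds were tested at 100 nM, or at 10 μM against ABL T315I, in 1% DMSO final, with ATP at apparent Km.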

EGFR (ErbB1) T790M L858R = target: T2, EGFR (ErbB1) T790M L858R (Homo sapiens, UniProt P00533, L858R/T790M); experiment: In vitro kinase assay (Z′-LYTE); format: biochemical; settings: read-out: % of inhibition of the kinase compared to the control
T2 construct: purchased Invitrogen
Method in brief: as §1

EGFR (ErbB1) = target: T3, EGFR (ErbB1) (Homo sapiens, UniProt P00533); experiment: In vitro kinase assay (Z′-LYTE); format: biochemical; settings: read-out: % of inhibition of the kinase compared to the control
T3 construct: purchased Invitrogen
Method in brief: as §1

PDGFRA (PDGFR alpha) = target: T4, PDGFRA (PDGFR alpha) (Homo sapiens, UniProt P16234); experiment: In vitro kinase assay (Z′-LYTE); format: biochemical; settings: read-out: % of inhibition of the kinase compared to the control
T4 construct: purchased Invitrogen
Method in brief: as §1

PDGFRB = target: T5, PDGFRB (Homo sapiens, UniProt P09619); experiment: In vitro kinase assay (Z′-LYTE); format: biochemical; settings: read-out: % of inhibition of the kinase compared to the control
T5 construct: purchased Invitrogen
Method in brief: as §1

ABL = target: T6, ABL (Homo sapiens, UniProt P00519); experiment: In vitro kinase assay (Z′-LYTE); format: biochemical; settings: read-out: % of inhibition of the kinase compared to the control
T6 construct: purchased Invitrogen

FGFR1 = target: T7, FGFR1 (Homo sapiens, UniProt P11362); experiment: In vitro kinase assay (Z′-LYTE); format: biochemical; settings: read-out: % of inhibition of the kinase compared to the control
T7 construct: purchased Invitrogen
Method in brief: as §1

KDR (VEGFR2) = target: T8, KDR (VEGFR2) (Homo sapiens, UniProt P35968); experiment: In vitro kinase assay (Z′-LYTE); format: biochemical; settings: read-out: % of inhibition of the kinase compared to the control
T8 construct: purchased Invitrogen
Method in brief: as §1

SRC = target: T9, SRC (Homo sapiens, UniProt P12931); experiment: In vitro kinase assay (Z′-LYTE); format: biochemical; settings: read-out: % of inhibition of the kinase compared to the control
T9 construct: purchased Invitrogen
Method in brief: as §1

VEGFR1 = target: T10, VEGFR1 (Homo sapiens, UniProt P17948); experiment: In vitro kinase assay (Z′-LYTE); format: biochemical; settings: read-out: % of inhibition of the kinase compared to the control
T10 construct: purchased Invitrogen
Method in brief: as §1

ABL T315I = target: T11, ABL T315I (Homo sapiens, UniProt P00519, T315I); experiment: In vitro kinase assay (Z′-LYTE); format: biochemical; settings: read-out: % of inhibition of the kinase compared to the control
T11 construct: purchased Invitrogen
Method in brief: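 Read-out is a ratiometric FRET signal (donor/acceptor emission, 400 nm excitation) from a doubly labelled peptide, whose cleavage by a development protease depends on its phosphorylation state. ATP used at apparent Km in HEPES pH 7.5 buffer with MgCl2; compounds at 100 nM, or 10 μM for ABL T315I.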

FGFR2 = target: T12, FGFR2 (Homo sapiens, UniProt P21802); experiment: In vitro kinase assay (Z′-LYTE); format: biochemical; settings: read-out: % of inhibition of the kinase compared to the control
T12 construct: purchased Invitrogen
Method in brief: as §1

MDA-MB-231 = experiment: In vitro cell proliferation assay (MTT); format: cell-based; settings: Homo sapiens, MDA-MB-231, 72 h
Method in brief: (§2)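 For these tumour lines, 5×10^3 cells were plated per well. Compound exposure lasted 72 hr across concentrations of 10 nM to 3 μM, with duplicate wells per concentration. Viable cell proliferation was determined by MTT assay.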

HepG2 = experiment: In vitro cell proliferation assay (MTT); format: cell-based; settings: Homo sapiens, HepG2, 72 h
Method in brief: as §2

PC-3 = experiment: In vitro cell proliferation assay (MTT); format: cell-based; settings: Homo sapiens, PC-3, 72 h
Method in brief: as §2

A549 = experiment: In vitro cell proliferation assay (MTT); format: cell-based; settings: Homo sapiens, A549, 72 h
Method in brief: as §2

HUVEC = experiment: In vitro cell proliferation assay (MTT); format: cell-based; settings: Homo sapiens, 72 h
Method: Cancer cell lines (5×10^3 cells per well) or HUVEC (1×10^4 cells per well) or HRMEC (1×10^4 cells per well) were distributed in 96-well plates and incubating in duplicate with escalating concentrations (10 nM to 3 μM) of compounds for 72 hr. Cell proliferation was measured using MTT (3 [4,5-dimethylthiazol-2-yl]-2,5-diphenyltetrazolium bromide).

HT29 = experiment: In vitro cell proliferation assay (MTT); format: cell-based; settings: Homo sapiens, HT-29, 72 h
Method in brief: as §2

H1975 = experiment: In vitro cell proliferation assay (MTT); format: cell-based; settings: Homo sapiens, NCI-H1975, 72 h
Method in brief: as §2

HuCCT1 = experiment: In vitro cell proliferation assay (MTT); format: cell-based; settings: Homo sapiens, HuCCT-1, 72 h
Method in brief: as §2

BxPC-3 = experiment: In vitro cell proliferation assay (MTT); format: cell-based; settings: Homo sapiens, BXPC-3, 72 h
Method in brief: as §2

HRMEC = experiment: In vitro cell proliferation assay (MTT); format: cell-based; settings: 72 h
Method in brief: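 Seed 5×10^3 cells per well. Add compound at rising doses (10 nM to 3 μM), run in duplicate. Incubate 72 hr, then quantify growth with MTT.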

HuH6 Clone 5 = experiment: In vitro cell proliferation assay (MTT); format: cell-based; settings: HUH-6-clone5, 72 h
Method in brief: as §2

HeLa = experiment: In vitro cell proliferation assay (MTT); format: cell-based; settings: Homo sapiens, 72 h
Method in brief: as §2

HuH7 = experiment: In vitro cell proliferation assay (MTT); format: cell-based; settings: Homo sapiens, Huh-7, 72 h
Method in brief: as §2

T3 sequence (P00533 25-1210): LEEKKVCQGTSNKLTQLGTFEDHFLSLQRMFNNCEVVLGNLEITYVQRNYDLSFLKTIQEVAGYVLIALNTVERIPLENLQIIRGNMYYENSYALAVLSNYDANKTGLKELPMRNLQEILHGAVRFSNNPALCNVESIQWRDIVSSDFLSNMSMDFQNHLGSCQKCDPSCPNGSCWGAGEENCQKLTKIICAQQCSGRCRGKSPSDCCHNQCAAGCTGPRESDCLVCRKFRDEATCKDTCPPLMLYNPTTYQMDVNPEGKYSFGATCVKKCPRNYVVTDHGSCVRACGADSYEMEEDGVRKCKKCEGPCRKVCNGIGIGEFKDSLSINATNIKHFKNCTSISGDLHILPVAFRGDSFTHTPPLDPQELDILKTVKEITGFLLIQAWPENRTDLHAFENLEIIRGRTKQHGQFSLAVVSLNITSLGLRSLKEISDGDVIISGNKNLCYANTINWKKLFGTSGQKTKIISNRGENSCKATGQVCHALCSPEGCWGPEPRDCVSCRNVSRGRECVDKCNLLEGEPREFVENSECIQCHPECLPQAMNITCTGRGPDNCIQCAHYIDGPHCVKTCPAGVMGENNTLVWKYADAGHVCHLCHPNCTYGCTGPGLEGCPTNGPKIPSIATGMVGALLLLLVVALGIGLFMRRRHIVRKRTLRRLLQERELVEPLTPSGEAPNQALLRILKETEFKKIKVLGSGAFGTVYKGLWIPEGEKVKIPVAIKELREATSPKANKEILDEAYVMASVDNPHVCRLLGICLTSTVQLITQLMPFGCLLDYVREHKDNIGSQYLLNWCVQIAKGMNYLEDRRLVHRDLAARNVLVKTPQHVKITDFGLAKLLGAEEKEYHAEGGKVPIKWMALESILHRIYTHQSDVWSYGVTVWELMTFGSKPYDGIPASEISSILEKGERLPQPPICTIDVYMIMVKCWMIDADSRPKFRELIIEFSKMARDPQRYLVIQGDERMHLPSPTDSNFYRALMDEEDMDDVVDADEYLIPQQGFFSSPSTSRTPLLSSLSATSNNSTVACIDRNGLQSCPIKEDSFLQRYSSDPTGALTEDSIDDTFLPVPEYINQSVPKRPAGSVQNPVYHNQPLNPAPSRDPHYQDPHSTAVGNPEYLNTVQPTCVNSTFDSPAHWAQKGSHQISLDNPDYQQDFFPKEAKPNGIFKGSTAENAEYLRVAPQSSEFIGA
T8 sequence (P35968 20-1356): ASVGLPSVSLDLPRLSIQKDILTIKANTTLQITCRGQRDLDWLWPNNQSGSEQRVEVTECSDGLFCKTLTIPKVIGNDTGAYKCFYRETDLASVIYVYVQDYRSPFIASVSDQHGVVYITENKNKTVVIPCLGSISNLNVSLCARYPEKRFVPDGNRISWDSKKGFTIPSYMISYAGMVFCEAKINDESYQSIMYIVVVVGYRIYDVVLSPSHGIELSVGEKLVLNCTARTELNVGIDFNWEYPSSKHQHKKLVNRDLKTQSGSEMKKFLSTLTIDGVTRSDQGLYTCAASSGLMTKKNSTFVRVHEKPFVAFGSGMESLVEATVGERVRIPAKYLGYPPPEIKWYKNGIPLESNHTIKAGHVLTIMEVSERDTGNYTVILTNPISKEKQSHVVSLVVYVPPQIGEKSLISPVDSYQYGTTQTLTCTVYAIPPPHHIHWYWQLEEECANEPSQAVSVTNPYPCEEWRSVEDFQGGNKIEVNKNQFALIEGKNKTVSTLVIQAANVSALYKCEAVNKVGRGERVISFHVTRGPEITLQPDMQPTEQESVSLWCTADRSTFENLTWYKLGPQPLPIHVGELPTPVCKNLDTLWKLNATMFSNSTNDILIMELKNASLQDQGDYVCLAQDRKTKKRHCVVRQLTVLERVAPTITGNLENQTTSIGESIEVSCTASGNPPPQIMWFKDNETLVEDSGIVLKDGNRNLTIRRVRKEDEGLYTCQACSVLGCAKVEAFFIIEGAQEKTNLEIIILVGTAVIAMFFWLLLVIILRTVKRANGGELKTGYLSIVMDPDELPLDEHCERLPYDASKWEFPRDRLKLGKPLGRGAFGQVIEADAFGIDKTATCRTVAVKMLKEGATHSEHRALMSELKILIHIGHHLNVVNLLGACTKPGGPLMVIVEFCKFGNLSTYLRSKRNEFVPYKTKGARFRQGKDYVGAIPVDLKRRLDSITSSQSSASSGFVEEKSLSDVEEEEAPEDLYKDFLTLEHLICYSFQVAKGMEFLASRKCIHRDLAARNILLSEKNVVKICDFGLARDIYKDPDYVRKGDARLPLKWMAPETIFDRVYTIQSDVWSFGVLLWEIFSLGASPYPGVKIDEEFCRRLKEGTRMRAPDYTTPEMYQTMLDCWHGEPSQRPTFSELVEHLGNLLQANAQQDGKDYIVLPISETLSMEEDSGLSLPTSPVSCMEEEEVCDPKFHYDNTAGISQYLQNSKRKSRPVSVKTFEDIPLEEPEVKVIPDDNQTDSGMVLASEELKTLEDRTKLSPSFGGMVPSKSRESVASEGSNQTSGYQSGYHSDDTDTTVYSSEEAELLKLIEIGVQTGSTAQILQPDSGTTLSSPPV
T5 sequence (P09619 33-1106): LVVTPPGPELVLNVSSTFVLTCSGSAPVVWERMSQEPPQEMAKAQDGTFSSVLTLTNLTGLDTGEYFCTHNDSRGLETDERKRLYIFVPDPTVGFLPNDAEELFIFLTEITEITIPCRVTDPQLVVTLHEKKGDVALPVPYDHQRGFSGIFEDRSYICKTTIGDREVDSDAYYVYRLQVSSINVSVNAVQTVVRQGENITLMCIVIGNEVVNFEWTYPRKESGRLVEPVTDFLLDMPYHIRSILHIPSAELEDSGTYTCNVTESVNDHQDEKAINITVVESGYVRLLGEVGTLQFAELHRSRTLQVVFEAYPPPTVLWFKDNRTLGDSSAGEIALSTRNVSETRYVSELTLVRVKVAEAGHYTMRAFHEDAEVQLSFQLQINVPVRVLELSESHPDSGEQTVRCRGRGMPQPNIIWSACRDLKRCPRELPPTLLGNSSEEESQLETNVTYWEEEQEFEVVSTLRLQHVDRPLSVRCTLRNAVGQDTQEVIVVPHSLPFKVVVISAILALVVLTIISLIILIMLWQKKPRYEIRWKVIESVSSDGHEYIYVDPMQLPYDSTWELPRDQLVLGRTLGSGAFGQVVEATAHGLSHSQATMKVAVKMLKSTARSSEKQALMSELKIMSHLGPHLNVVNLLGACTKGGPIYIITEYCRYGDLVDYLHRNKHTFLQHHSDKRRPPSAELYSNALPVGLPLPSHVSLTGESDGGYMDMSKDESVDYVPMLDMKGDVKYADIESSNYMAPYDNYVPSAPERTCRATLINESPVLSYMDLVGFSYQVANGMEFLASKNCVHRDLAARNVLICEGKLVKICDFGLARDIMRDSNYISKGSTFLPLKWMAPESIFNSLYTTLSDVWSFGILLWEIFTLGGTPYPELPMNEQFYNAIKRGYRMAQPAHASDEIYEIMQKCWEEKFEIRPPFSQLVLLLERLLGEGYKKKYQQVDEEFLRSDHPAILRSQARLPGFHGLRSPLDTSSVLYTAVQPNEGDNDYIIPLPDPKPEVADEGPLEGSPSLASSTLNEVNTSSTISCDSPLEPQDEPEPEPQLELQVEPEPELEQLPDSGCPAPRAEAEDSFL
T9 sequence (P12931 whole entry): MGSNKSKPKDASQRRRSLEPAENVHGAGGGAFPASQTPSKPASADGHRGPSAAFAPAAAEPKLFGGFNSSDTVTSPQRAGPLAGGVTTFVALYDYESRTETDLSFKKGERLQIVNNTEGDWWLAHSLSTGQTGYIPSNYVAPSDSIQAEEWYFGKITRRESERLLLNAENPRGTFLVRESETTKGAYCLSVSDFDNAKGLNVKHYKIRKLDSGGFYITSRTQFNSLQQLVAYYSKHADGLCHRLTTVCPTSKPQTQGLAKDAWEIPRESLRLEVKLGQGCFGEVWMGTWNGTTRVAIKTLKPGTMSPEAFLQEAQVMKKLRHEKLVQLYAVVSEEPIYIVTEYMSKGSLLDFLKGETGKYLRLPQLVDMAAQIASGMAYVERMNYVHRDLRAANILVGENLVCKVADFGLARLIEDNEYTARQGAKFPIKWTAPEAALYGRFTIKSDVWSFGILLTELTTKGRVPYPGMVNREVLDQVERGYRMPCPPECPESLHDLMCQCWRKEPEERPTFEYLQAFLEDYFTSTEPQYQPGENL
T7 sequence (P11362 22-822): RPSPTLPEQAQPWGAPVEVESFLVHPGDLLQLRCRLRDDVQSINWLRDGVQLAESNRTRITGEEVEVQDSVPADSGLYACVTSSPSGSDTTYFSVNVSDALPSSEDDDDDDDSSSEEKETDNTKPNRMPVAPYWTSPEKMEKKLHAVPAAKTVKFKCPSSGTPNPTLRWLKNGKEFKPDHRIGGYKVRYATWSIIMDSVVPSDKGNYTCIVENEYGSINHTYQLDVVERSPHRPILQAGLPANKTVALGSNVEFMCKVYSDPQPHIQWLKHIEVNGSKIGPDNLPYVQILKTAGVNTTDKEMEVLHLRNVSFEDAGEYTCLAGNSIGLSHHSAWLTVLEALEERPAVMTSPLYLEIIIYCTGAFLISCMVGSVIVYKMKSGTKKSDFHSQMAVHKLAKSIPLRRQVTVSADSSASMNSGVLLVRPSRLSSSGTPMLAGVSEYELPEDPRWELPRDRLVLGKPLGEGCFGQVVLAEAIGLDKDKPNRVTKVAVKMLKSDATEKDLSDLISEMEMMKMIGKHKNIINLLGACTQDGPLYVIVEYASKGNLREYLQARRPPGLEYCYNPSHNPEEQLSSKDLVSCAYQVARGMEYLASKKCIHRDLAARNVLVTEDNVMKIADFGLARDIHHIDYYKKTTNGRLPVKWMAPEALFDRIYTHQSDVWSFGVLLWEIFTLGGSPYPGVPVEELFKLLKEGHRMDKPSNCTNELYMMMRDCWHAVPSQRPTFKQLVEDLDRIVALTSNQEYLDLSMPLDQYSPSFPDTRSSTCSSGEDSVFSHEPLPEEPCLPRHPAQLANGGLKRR

inhibition at 0.1 µM (BRAF)	inhibition at 0.1 µM (EGFR (ErbB1) T790M L858R)	inhibition at 0.1 µM (EGFR (ErbB1))	inhibition at 0.1 µM (PDGFRA (PDGFR alpha))	inhibition at 0.1 µM (PDGFRB)	inhibition at 10 µM (ABL)	inhibition at 0.1 µM (FGFR1)	inhibition at 0.1 µM (KDR (VEGFR2))	inhibition at 0.1 µM (SRC)	inhibition at 0.1 µM (VEGFR1)	inhibition at 10 µM (ABL T315I)	inhibition at 0.1 µM (FGFR2)	EC50 (MDA-MB-231)	EC50 (HepG2)	EC50 (A549)	EC50 (HT29)	EC50 (H1975)	EC50 (BxPC-3)	Compound	EC50 (HUVEC)	EC50 (HuCCT1)	further results
< 50%	< 50%	≥ 50%	≥ 50%	< 50%	≥ 50%	< 50%	< 50%	≥ 50%	< 50%	≥ 50%	< 50%	≤ 0.1 µM	≤ 0.1 µM	0.1 to 1 µM	0.1 to 1 µM	0.1 to 1 µM	0.1 to 1 µM	COC(=O)c1cc2cc(NCc3cc(NC(=O)c4cccc(C(F)(F)F)c4)ccc3C)cnc2[nH]1 [OR0606]	≤ 0.1 µM	–	EC50 (PC-3): ≥ 1 µM; EC50 (HeLa): ≥ 1 µM
≥ 50%	≥ 50%	≥ 50%	≥ 50%	< 50%	≥ 50%	≥ 50%	≥ 50%	≥ 50%	< 50%	≥ 50%	≥ 50%	≤ 0.1 µM	≤ 0.1 µM	0.1 to 1 µM	≤ 0.1 µM	0.1 to 1 µM	0.1 to 1 µM	COC(=O)c1cc2cc(NCc3cc(NC(=O)c4ccc(CN5CCNCC5)c(C(F)(F)F)c4)ccc3C)cnc2[nH]1 [OR0613]	≤ 0.1 µM	≥ 1 µM	EC50 (PC-3): ≥ 1 µM; EC50 (HuH6 Clone 5): ≥ 1 µM; EC50 (HuH7): 0.1 to 1 µM
≥ 50%	< 50%	≥ 50%	≥ 50%	≥ 50%	≥ 50%	< 50%	≥ 50%	≥ 50%	< 50%	< 50%	< 50%	≤ 0.1 µM	≤ 0.1 µM	0.1 to 1 µM	≥ 1 µM	≥ 1 µM	0.1 to 1 µM	COC(=O)c1cc2cc(NCc3cc(NC(=O)c4cncc(C(F)(F)F)c4)ccc3C)cnc2[nH]1 [OR0604]	0.1 to 1 µM	≥ 1 µM	EC50 (PC-3): ≥ 1 µM; EC50 (HuH6 Clone 5): ≥ 1 µM; EC50 (HuH7): 0.1 to 1 µM
≥ 50%	< 50%	≥ 50%	≥ 50%	–	–	–	≥ 50%	≥ 50%	–	–	< 50%	0.1 to 1 µM	0.1 to 1 µM	≤ 0.1 µM	≤ 0.1 µM	0.1 to 1 µM	≤ 0.1 µM	COC(=O)c1cc2cc(NCc3cc(NC(=O)c4cc(CN5CCN(C)CC5)cc(C(F)(F)F)c4)ccc3C)cnc2[nH]1 [OR0699]	0.1 to 1 µM	0.1 to 1 µM	EC50 (HuH6 Clone 5): ≥ 1 µM; EC50 (HeLa): 0.1 to 1 µM; EC50 (HuH7): 0.1 to 1 µM

The remaining lines, values behind:

Compound	inhibition at 0.1 µM (BRAF)	inhibition at 0.1 µM (EGFR (ErbB1) T790M L858R)	inhibition at 0.1 µM (EGFR (ErbB1))	inhibition at 0.1 µM (PDGFRA (PDGFR alpha))	inhibition at 0.1 µM (PDGFRB)	inhibition at 10 µM (ABL)	inhibition at 0.1 µM (FGFR1)	inhibition at 0.1 µM (KDR (VEGFR2))	inhibition at 0.1 µM (SRC)	inhibition at 0.1 µM (VEGFR1)	inhibition at 10 µM (ABL T315I)	inhibition at 0.1 µM (FGFR2)	EC50 (MDA-MB-231)	EC50 (HepG2)	EC50 (A549)	EC50 (HT29)	EC50 (H1975)	EC50 (BxPC-3)	EC50 (HUVEC)	EC50 (HuCCT1)	further results
COC(=O)c1cc2cc(NCc3cc(NC(=O)c4ccc(Cn5cnc(C)c5)c(C(F)(F)F)c4)ccc3C)cnc2[nH]1 [OR0639]	≥ 50%	< 50%	≥ 50%	≥ 50%	< 50%	≥ 50%	< 50%	≥ 50%	< 50%	< 50%	≥ 50%	< 50%	0.1 to 1 µM	0.1 to 1 µM	0.1 to 1 µM	0.1 to 1 µM	≥ 1 µM	0.1 to 1 µM	0.1 to 1 µM	≥ 1 µM	EC50 (PC-3): ≥ 1 µM
COC(=O)c1cc2cc(NCc3cc(NC(=O)c4ccc5[nH]ccc5c4)ccc3C)cnc2[nH]1 [OR0617]	≥ 50%	< 50%	< 50%	≥ 50%	< 50%	≥ 50%	< 50%	≥ 50%	≥ 50%	< 50%	< 50%	< 50%	–	0.1 to 1 µM	≥ 1 µM	≥ 1 µM	≥ 1 µM	≥ 1 µM	0.1 to 1 µM	≥ 1 µM	EC50 (HRMEC): ≥ 1 µM
COC(=O)c1cc2cc(NCc3cc(NC(=O)c4ccc5[nH]nnc5c4)ccc3C)cnc2[nH]1 [OR0616]	≥ 50%	< 50%	< 50%	≥ 50%	≥ 50%	≥ 50%	< 50%	< 50%	< 50%	< 50%	< 50%	< 50%	–	≥ 1 µM	≥ 1 µM	≥ 1 µM	≥ 1 µM	≥ 1 µM	≥ 1 µM	–	EC50 (HRMEC): ≥ 1 µM
COC(=O)c1cc2cc(NC(=O)c3cc(NC(=O)c4cncc(C(F)(F)F)c4)ccc3C)cnc2[nH]1 [OR0745]	≥ 50%	< 50%	< 50%	≥ 50%	–	–	–	< 50%	≥ 50%	–	–	< 50%	0.1 to 1 µM	0.1 to 1 µM	0.1 to 1 µM	0.1 to 1 µM	≥ 1 µM	–	0.1 to 1 µM	≥ 1 µM	EC50 (HuH6 Clone 5): ≥ 1 µM; EC50 (HeLa): ≥ 1 µM; EC50 (HuH7): 0.1 to 1 µM
COC(=O)c1cc2cc(NCc3cc(NC(=O)c4cccc(OC(F)(F)F)c4)ccc3C)cnc2[nH]1 [OR0611]	< 50%	< 50%	< 50%	≥ 50%	< 50%	≥ 50%	< 50%	< 50%	≥ 50%	< 50%	≥ 50%	< 50%	≤ 0.1 µM	≤ 0.1 µM	0.1 to 1 µM	0.1 to 1 µM	0.1 to 1 µM	≤ 0.1 µM	0.1 to 1 µM	–	EC50 (PC-3): ≥ 1 µM; EC50 (HeLa): ≥ 1 µM
COC(=O)c1cc2cc(NCc3cc(NC(=O)c4ccc(CN5CCC(O)CC5)c(C(F)(F)F)c4)ccc3C)cnc2[nH]1 [OR0636]	< 50%	< 50%	≥ 50%	≥ 50%	< 50%	≥ 50%	< 50%	< 50%	≥ 50%	< 50%	< 50%	< 50%	0.1 to 1 µM	0.1 to 1 µM	0.1 to 1 µM	0.1 to 1 µM	≥ 1 µM	0.1 to 1 µM	0.1 to 1 µM	≥ 1 µM	EC50 (PC-3): ≥ 1 µM
CNC(=O)c1cc(Oc2ccc(NC(=O)Nc3ccc(Cl)c(C(F)(F)F)c3)cc2)ccn1 [Sorafenib, reference compound]	–	–	–	–	–	–	–	–	–	–	–	–	–	≥ 1 µM	–	–	–	–	0.1 to 1 µM	≥ 1 µM	EC50 (HuH6 Clone 5): ≥ 1 µM; EC50 (HuH7): ≥ 1 µM
